# Where two headings read alike, the source gives them in different places.
# What was measured:
# [1] = test system: drug-resistant Enterobacteriaceae strains; test: Checkerboard combination, summary over Enterobacteriaceae strains; assay type: cell-based; settings: combined with avibactam; all of the 12 drug-resistant Enterobacteriaceae strains tested
# Method: (§1) Mueller-Hinton broth (MH broth) medium, Trypticase Soy Broth (TSB Broth) medium, purchased from BD Difco, Cockeysville, MD, USA; • 96-well plate: Corning Costar, Cambridge, MA, USA; • Test method: the checkerboard dilution method was used for determination.
# (§2) (1) Preparation of the test samples: 4 mg of each sample was taken and was prepared into a test solution at 2,048 μg/mL with MH broth, and the test solution was diluted two-fold in a 96-well plate to prepare solutions of a series of gradient concentrations.
# (§3) (2) Preparation of a bacteria solution: The test strains were amplified by Trypticase Soy Broth (TSB Broth) according to the CLSI/NCCLS standard.
# (3) Addition of the samples: 10 μL of the bacteria solution with a concentration of 6×10^5 CFU/mL was pipetted into each well of the 96-well plate. Each well contained the antibacterial drugs (the compound of formula (I-1) and the compound of formula (I-2)) diluted two-fold with broth and the aforementioned lactamase inhibitor or efflux pump inhibitor. […] The samples were mixed thoroughly. Three parallel experiments were set up for each concentration and the results were averaged. […]
# (5) Calculation: The in vitro effect of each drug-inhibitor combination was analyzed by calculating the FICI value: FICI=(MIC of drug A in the combination/MIC of drug A alone)+ (MIC of drug B in the combination/MIC of drug B alone). […]
# Klebsiella pneumoniae [2] = test: MIC assay of individual compounds (microdilution, CLSI/NCCLS); assay type: cell-based; settings: Klebsiella pneumoniae, read-out: MIC
# Method: (§4) Mueller-Hinton broth (MH broth) medium, Trypticase Soy Broth (TSB Broth) medium, purchased from BD Difco, Cockeysville, MD, USA; • 96-well plate: Corning Costar, Cambridge, MA, USA; • Test method: the antibacterial activities were tested by the microdilution method according to the CLSI/NCCLS standard.
# (§5) (1) Preparation of the test samples: 4 mg of each sample was taken, and was prepared into a test solution at 1,024 μg/mL with MH broth, and the test solution was diluted two-fold in a 96-well plate to prepare solutions of a series of gradient concentrations, the volume in each well being 90 μL.
# as §3
# (§6) (3) Addition of the samples: a bacteria solution with a concentration of 6×10^5 cfu/mL was prepared, and 10 μL of the bacteria solution was pipetted into each well of the 96-well plate. Three parallel experiments were set up for each concentration and the results were averaged. To the negative control group, 10 μL of the bacterial solution and 90 μL MH broth were added.
# (§7) (4) Incubation: the 96-well plate was placed in a 37° C. constant-temperature incubator for 18 hours, and the growth of the strains was observed. The drug concentration in the well with no microbial growth was recorded as the MIC.
# Acinetobacter baumannii [3] = test: as above; assay type: cell-based; settings: individual compound, read-out: MIC
# Method: as §4, §5, §3, §6, §7
# [4] = test system: Klebsiella pneumoniae ATCC BAA2146 (NDM-1); test: Protective effect on mice systemically infected (survival within 7 days); assay type: in vivo, ICR mice; settings: for Number of animals survived: 5 mice
# Method: ICR mice (half male and half female) with healthy appearance and a weight of 18 to 22 g were used. The mice were randomly grouped, with 5 mice (either male or female) in each dose group.
# To the mice infected intraperitoneally with NDM-1-producing Klebsiella pneumoniae (at a dose of 3.0×10^6 CFU), drugs were administered once through the tail vein at certain doses (see Table 5) at 1 h and 6 h respectively after the infection for a total of two administrations, with the volume of the drugs administered being 10 mL/kg. The survival of the animals in each group was observed within 7 days, and the survival rates of the mice were calculated. The control group was not given any drugs, and given only physiological saline, and the seven-day survival rate of the mice was 0.
# The protective effects of the compound of formula (I-1) administered alone and in combination with avibactam on mice systemically infected with Klebsiella pneumoniae ATCC BAA2146 (NDM-1) are shown in Table 5.
# Klebsiella pneumoniae [5] = test: Combined in vitro use, checkerboard dilution method; assay type: cell-based
# Method: as §1, §2, §3
# (§8) (3) Addition of the samples: 10 μL of the bacteria solution with a concentration of 6×10^5 CFU/mL was pipetted into each well of the 96-well plate. Each well contained the antibacterial drugs (the compound of formula (I-1) and the compound of formula (I-2)) diluted two-fold with broth and the aforementioned lactamase inhibitor or efflux pump inhibitor. […] The samples were mixed thoroughly. Three parallel experiments were set up for each concentration and the results were averaged. To the negative control group, 10 μL of the bacterial solution and 90 μL MH broth were added.
# (§9) (4) Incubation: the 96-well plate was placed in a 37° C. constant-temperature incubator for 18 hours, and the growth of the strains was observed.
# (§10) (5) Calculation: The in vitro effect of each drug-inhibitor combination was analyzed by calculating the FICI value: FICI=(MIC of drug A in the combination/MIC of drug A alone)+ (MIC of drug B in the combination/MIC of drug B alone).
# (§11) In order to ensure the reliability of the data, three repeated tests were conducted on different dates and the results were averaged.
# Pseudomonas aeruginosa = test: as above; assay type: cell-based
# Method: as §1, §2, §3, §8, §9, §10, §11
# Acinetobacter baumannii [6] = test: as above; assay type: cell-based
# Method: as §1, §2, §3, §8, §9, §10, §11
# Enterobacter cloacae = test: as above; assay type: cell-based; settings: compound of formula (I-1) combined with avibactam; Enterobacter cloacae ATCC 2468
# Method: as §1, §2, §3, §8, §9, §10, §11
# Escherichia coli = test: as above; assay type: cell-based
# Method: as §1, §2, §3, §8, §9, §10, §11
# [7] = individual compound 16 mg/kg i.v. (tail vein) at 1 h and 6 h after infection
# [8] = individual compound 32 mg/kg i.v. (tail vein) at 1 h and 6 h after infection
structure (smiles),measurement,setting,value
CC1(C)[C@H](NC(=O)/C(=N\OC2(C(=O)O)CC2)c2csc(N)n2)C(=O)N1OS(=O)(=O)O [Compound of formula (I-1)],change of MIC values on combination,[1],significantly reduced
same,MIC,"Klebsiella pneumoniae [2]; ATCC2146, individual compound, Klebsiella pneumoniae ATCC 2146",2 µg/mL
same,MIC,"Klebsiella pneumoniae [2]; ATCC700603, individual compound, Klebsiella pneumoniae ATCC 700603",4 µg/mL
same,MIC,"Klebsiella pneumoniae [2]; individual compound, Klebsiella pneumoniae CCPM(A)-0814R18",2 µg/mL
same,MIC,"Klebsiella pneumoniae [2]; individual compound, Klebsiella pneumoniae CCPM(A)-0814R33",2 µg/mL
same,MIC,"Klebsiella pneumoniae [2]; individual compound, Klebsiella pneumoniae CCPM(A)-0817R61",64 µg/mL
same,MIC,"Klebsiella pneumoniae [2]; individual compound, Klebsiella pneumoniae CCPM(A)-081301",2 µg/mL
same,MIC,"Klebsiella pneumoniae [2]; individual compound, Klebsiella pneumoniae CCPM(A)-081705",2 µg/mL
same,MIC,"Klebsiella pneumoniae [2]; individual compound, Klebsiella pneumoniae CCPM(A)-081715",2 µg/mL
same,MIC,"Klebsiella pneumoniae [2]; individual compound, Klebsiella pneumoniae CCPM(A)-081716",128 µg/mL
same,MIC,"Klebsiella pneumoniae [2]; individual compound, Klebsiella pneumoniae CCPM(A)-081729",2 µg/mL
same,MIC,"Acinetobacter baumannii [3]; ATCC17978, Acinetobacter baumannii ATCC 17978",16 µg/mL
same,MIC,"Acinetobacter baumannii [3]; ATCC19606, Acinetobacter baumannii ATCC 19606",16 µg/mL
same,MIC,Acinetobacter baumannii [3]; Acinetobacter baumannii CCPM(A)-P-101633(CRAB),32 µg/mL
same,Survival rate of animals (%),[4]; [7],20%
same,Number of animals survived,[4]; [7],1
same,Survival rate of animals (%),[4]; [8],60%
same,Number of animals survived,[4]; [8],3
same,MIC in combination,"Klebsiella pneumoniae [5]; compound of formula (I-1) combined with avibactam, Klebsiella pneumoniae ATCC 2146",0.5 µg/mL
same,MIC in combination,"Klebsiella pneumoniae [5]; compound of formula (I-1) combined with avibactam, Klebsiella pneumoniae ATCC 700603",0.5 µg/mL
same,MIC in combination,"Klebsiella pneumoniae [5]; compound of formula (I-1) combined with avibactam, Klebsiella pneumoniae CCPM(A)-0814R18",0.25 µg/mL
same,MIC in combination,"Klebsiella pneumoniae [5]; compound of formula (I-1) combined with avibactam, Klebsiella pneumoniae CCPM(A)-0814R33",0.25 µg/mL
same,MIC in combination,"Klebsiella pneumoniae [5]; compound of formula (I-1) combined with avibactam, Klebsiella pneumoniae CCPM(A)-0817R61",1 µg/mL
same,MIC in combination,"Klebsiella pneumoniae [5]; compound of formula (I-1) combined with avibactam, Klebsiella pneumoniae CCPM(A)-081705",0.5 µg/mL
same,MIC in combination,"Klebsiella pneumoniae [5]; compound of formula (I-1) combined with avibactam, Klebsiella pneumoniae CCPM(A)-081715",0.5 µg/mL
same,MIC in combination,"Klebsiella pneumoniae [5]; compound of formula (I-1) combined with avibactam, Klebsiella pneumoniae CCPM(A)-081716",0.25 µg/mL
same,MIC in combination,"Klebsiella pneumoniae [5]; compound of formula (I-1) combined with avibactam, Klebsiella pneumoniae CCPM(A)-081729",0.5 µg/mL
same,MIC in combination,"Klebsiella pneumoniae [5]; compound of formula (I-1) combined with relebactam, Klebsiella pneumoniae ATCC 2146",0.5 µg/mL
same,MIC in combination,"Klebsiella pneumoniae [5]; compound of formula (I-1) combined with relebactam, Klebsiella pneumoniae ATCC 700603",0.125 µg/mL
same,MIC in combination,"Klebsiella pneumoniae [5]; compound of formula (I-1) combined with vaborbactam, Klebsiella pneumoniae ATCC 700603",0.5 µg/mL
same,MIC in combination,"Klebsiella pneumoniae [5]; compound of formula (I-1) combined with vaborbactam, Klebsiella pneumoniae CCPM(A)-0814R33",0.5 µg/mL
same,reduction of MIC values on combination,"Pseudomonas aeruginosa; combined with PAβN, Pseudomonas aeruginosa ATCC27853 and PAO1 (CCPM(A)-P-09000032)",eight-fold
same,reduction of MIC value on combination,"Pseudomonas aeruginosa; combined with PAβN, Pseudomonas aeruginosa CCPM(A)-P-091626 (CRPA)",four-fold
same,MIC in combination,"Pseudomonas aeruginosa; compound of formula (I-1) combined with PAβN, Pseudomonas aeruginosa ATCC27853",2 µg/mL
same,MIC in combination,"Pseudomonas aeruginosa; compound of formula (I-1) combined with PAβN, Pseudomonas aeruginosa CCPM(A)-P-091626(CRPA)",8 µg/mL
same,MIC in combination,"Pseudomonas aeruginosa; compound of formula (I-1) combined with PAβN, Pseudomonas aeruginosa PAO1(CCPM(A)-P-09000032)",2 µg/mL
same,MIC in combination,"Pseudomonas aeruginosa; compound of formula (I-1) combined with berberine, Pseudomonas aeruginosa ATCC27853",16 µg/mL
same,MIC in combination,"Pseudomonas aeruginosa; compound of formula (I-1) combined with berberine, Pseudomonas aeruginosa CCPM(A)-P-091626(CRPA)",32 µg/mL
same,MIC in combination,"Pseudomonas aeruginosa; compound of formula (I-1) combined with berberine, Pseudomonas aeruginosa PAO1(CCPM(A)-P-09000032)",16 µg/mL
same,MIC in combination,"Pseudomonas aeruginosa; compound of formula (I-1) combined with conessine, Pseudomonas aeruginosa PAO1(CCPM(A)-P-09000032)",16 µg/mL
same,reduction of MIC values on combination,"Acinetobacter baumannii [6]; combined with berberine, Acinetobacter baumannii ATCC19606 and ATCC17978",four-fold
same,reduction of MIC values on combination,"Acinetobacter baumannii [6]; combined with conessine, Acinetobacter baumannii ATCC19606",four-fold
same,MIC in combination,"Acinetobacter baumannii [6]; compound of formula (I-1) combined with PAβN, Acinetobacter baumannii ATCC 17978",16 µg/mL
same,MIC in combination,"Acinetobacter baumannii [6]; compound of formula (I-1) combined with PAβN, Acinetobacter baumannii ATCC 19606",16 µg/mL
same,MIC in combination,"Acinetobacter baumannii [6]; compound of formula (I-1) combined with PAβN, Acinetobacter baumannii CCPM(A)-P-101633(CRAB)",16 µg/mL
same,MIC in combination,"Acinetobacter baumannii [6]; compound of formula (I-1) combined with berberine, Acinetobacter baumannii ATCC 17978",4 µg/mL
same,MIC in combination,"Acinetobacter baumannii [6]; compound of formula (I-1) combined with berberine, Acinetobacter baumannii ATCC 19606",4 µg/mL
same,MIC in combination,"Acinetobacter baumannii [6]; compound of formula (I-1) combined with berberine, Acinetobacter baumannii CCPM(A)-P-101633(CRAB)",16 µg/mL
same,MIC in combination,"Acinetobacter baumannii [6]; compound of formula (I-1) combined with conessine, Acinetobacter baumannii ATCC 19606",4 µg/mL
same,MIC in combination,Enterobacter cloacae,1 µg/mL
same,MIC in combination,"Escherichia coli; compound of formula (I-1) combined with avibactam, Escherichia coli ATCC 2469",0.125 µg/mL
same,MIC in combination,"Escherichia coli; compound of formula (I-1) combined with avibactam, Escherichia coli CCPM(A)-P-071301",0.25 µg/mL
same,MIC in combination,"Escherichia coli; compound of formula (I-1) combined with vaborbactam, Escherichia coli CCPM(A)-P-071301",0.5 µg/mL
